By Ki is commonly meant the dissociation constant of the complex between target and ligand, obtained from inhibition or displacement.

These results are taken from patent publication US9550741B2, “Benzoisothiazole compounds and methods of treating schizophrenia” (SHANGHAI INSTITUTE OF PHARMACEUTICAL INDUSTRY, priority 2013, dated 2017).

Series [1] relates to MK-801-induced schizophrenic mouse model. Put plainly: MK-801-induced schizophrenic mouse model, open-field movement. The settings on record: single oral administration, MK-801-induced model.
Another series deals with 5-HT1A receptor (Homo sapiens (Human), UniProt P08908). Description: 5-HT1A receptor binding test. The conditions noted are these: read-out: Affinity of the compound to 5-HT1A receptor, Ki value. As for the experimental part:
Cells: HEK-293 cells stably expressing 5-HT1A receptors as obtained by gene recombination are cultured for 3-5 days in cell culture medium DMEM supplemented with 10% serum.
Competitive inhibition ratio of each compound at the concentration of 10 μmol/L to inhibit the binding of [^3H]8-OH-DPAT to 5-HT1A receptor is determined for primary screening.
The components are mixed to homogeneity, and then the above tubes are transferred to water bath at 30° C. (1 h), removed into ice bath immediately, and suction filtered on Harvest (with ice cold Tris eluate for 5 times).

For series [2], the system named is Salmonella typhimurium TA98 and TA100. Description: Bacterial reverse mutation test (Ames). The conditions noted are these: TA98 and TA100, with or without S9.
Series [3] concerns Apo.-induced schizophrenic mouse model. Put plainly: Apomorphine-induced schizophrenic mouse model, stereotyped behaviors. Type of series: in vivo. The settings on record: single oral administration, Apo.-induced model. As for the experimental part: The drugs are administered by gastric gavage. The model control group is given the same volume of solvent by gastric gavage.
Total score of the stereotyped behaviors of the mice such as tail erection and wall-climbing in the 60 minutes is calculated.
The clinical response symptoms of the animals shall be recorded during the administration and test procedures.

Another series has as its target D2 receptor (Homo sapiens (Human), UniProt P14416). Put plainly: Dopamine D2 receptor binding test. The settings on record: read-out: Affinity of the compound to D2 receptor, Ki value. An excerpt: This experiment utilizes the plasmid vector containing the gene of D2 receptor protein for transfecting HEK293 cells by calcium phosphate transfection method.
(§1) Beckman LS-6500 multifunction liquid scintillation counter.

The target of the next series is 5-HT2A receptor (Homo sapiens (Human), UniProt P28223). Put plainly: 5-HT2A receptor binding test. The settings on record: read-out: Affinity of the compound to 5-HT2A receptor, Ki value; [3H]-Ketanserin, 5-HT2A receptor expressed in HEK293 cells.
Chain of 5-HT2A receptor (P28223 whole entry): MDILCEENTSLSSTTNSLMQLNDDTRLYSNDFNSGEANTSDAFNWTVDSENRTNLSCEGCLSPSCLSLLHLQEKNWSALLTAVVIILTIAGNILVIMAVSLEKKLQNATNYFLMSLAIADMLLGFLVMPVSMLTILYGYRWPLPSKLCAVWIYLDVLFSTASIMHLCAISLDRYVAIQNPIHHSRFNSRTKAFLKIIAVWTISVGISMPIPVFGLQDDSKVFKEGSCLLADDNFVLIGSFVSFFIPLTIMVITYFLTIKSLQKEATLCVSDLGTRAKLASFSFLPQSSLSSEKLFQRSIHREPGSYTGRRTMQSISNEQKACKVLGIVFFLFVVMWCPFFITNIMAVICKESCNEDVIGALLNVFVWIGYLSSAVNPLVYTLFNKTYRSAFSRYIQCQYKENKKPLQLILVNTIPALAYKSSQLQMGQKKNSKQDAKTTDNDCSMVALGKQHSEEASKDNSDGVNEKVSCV
Description: as §1

Series [4] has as its target human recombinant D3 receptor (Homo sapiens (Human), UniProt P35462). Put plainly: Dopamine D3 receptor binding test. The settings on record: read-out: Affinity of the compound to D3 receptor, Ki value. The protocol:
With [^3H]methyl-spiperone (0.3 nM) as the ligand and (+)-butaclamol (10 LM) for determining non-specific binding, binding tests are carried out on human recombinant D3 receptor (expressed in CHO cells).

Chain of 5-HT1A receptor (P08908 whole entry): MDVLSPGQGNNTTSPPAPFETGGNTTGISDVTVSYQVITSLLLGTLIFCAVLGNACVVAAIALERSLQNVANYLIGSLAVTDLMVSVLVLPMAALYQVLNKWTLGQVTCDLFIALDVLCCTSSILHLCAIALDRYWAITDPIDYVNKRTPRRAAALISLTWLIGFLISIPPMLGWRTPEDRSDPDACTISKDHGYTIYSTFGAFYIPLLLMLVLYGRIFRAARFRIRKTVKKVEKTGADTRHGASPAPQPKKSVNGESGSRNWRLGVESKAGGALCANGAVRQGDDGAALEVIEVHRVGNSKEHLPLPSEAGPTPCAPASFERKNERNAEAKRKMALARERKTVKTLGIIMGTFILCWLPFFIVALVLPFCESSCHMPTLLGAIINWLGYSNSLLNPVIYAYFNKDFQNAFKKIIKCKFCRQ
Chain of D2 receptor (P14416 whole entry): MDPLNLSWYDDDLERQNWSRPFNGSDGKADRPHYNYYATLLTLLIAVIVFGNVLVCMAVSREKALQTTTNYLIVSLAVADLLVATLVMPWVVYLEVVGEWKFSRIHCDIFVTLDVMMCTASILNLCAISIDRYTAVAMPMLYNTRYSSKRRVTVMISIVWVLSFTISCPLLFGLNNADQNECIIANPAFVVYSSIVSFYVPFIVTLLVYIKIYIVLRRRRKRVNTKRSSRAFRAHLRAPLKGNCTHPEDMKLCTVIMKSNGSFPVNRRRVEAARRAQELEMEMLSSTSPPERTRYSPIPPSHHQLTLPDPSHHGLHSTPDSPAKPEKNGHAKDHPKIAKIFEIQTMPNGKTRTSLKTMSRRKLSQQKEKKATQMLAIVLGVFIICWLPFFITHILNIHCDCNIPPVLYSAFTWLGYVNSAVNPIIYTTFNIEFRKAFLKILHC
Chain of human recombinant D3 receptor (P35462 whole entry): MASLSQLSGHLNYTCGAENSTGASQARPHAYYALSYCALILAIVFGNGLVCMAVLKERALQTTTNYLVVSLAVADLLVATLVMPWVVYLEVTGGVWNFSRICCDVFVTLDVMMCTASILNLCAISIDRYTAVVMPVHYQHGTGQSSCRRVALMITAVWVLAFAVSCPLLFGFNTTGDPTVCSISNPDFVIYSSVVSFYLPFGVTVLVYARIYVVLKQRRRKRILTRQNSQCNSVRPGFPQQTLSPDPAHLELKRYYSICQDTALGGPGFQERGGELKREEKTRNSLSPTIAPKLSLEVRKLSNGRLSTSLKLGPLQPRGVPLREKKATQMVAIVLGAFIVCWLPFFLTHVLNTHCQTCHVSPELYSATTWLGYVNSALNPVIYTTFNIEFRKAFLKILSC

On to `O=C(NCc1ccccc1)N[C@H]1CC[C@H](CCN2CCN(c3nsc4ccccc34)CC2)CC1` [IV-11], for which the “ED50, total distance of the open-field movement” value in series [1] amounted to 0.060 mg/kg. Besides, the Ki on 5-HT1A receptor worked out at 5.3 nM; at D2 receptor, 1.4 nM; on 5-HT2A receptor, 0.91 nM; in series [4] it was 0.18 nM. Moreover, the “Ames test result (colonies with reverse mutations)” value in series [2] is “negative”. Moreover, in series [3], the “ED50, inhibition of the total stereotyped behaviors” value is 0.53 mg/kg.
